Legend:
[1] = target: RAC-alpha serine/threonine-protein kinase (Homo sapiens) (UniProt P31749); experiment: Inhibition of human AKT1 (104 to 408 residues) assessed as residual activity at 0.1 uM relative to control
[2] = target: Serine/threonine-protein kinase pim-1 (Homo sapiens) (UniProt P11309); experiment: Inhibition of human PIM1 assessed as residual activity at 0.1 uM relative to control
[3] = target: Mitogen-activated protein kinase kinase kinase 11 (Homo sapiens) (UniProt Q16584); experiment: Inhibition of human MAP3K11 assessed as residual activity at 0.1 uM relative to control
[4] = target: Serine/threonine-protein kinase Nek6 (Homo sapiens) (UniProt Q9HC98); experiment: Inhibition of human NEK6 assessed as residual activity at 0.1 uM relative to control
Chain of Serine/threonine-protein kinase Nek6 (Homo sapiens) (Q9HC98 whole entry): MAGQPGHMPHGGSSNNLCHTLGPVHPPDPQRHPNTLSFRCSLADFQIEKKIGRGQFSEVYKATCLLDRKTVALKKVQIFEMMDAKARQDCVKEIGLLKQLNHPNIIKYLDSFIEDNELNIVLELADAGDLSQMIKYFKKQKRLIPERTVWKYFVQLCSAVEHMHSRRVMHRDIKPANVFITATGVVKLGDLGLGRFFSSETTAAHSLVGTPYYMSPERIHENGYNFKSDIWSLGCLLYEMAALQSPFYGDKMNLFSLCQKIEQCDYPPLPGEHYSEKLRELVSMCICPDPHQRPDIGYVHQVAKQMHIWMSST

[5] = target: T1, Serine/threonine-protein kinase TBK1 (Homo sapiens) (UniProt Q9UHD2); experiment: Inhibition of human TBK1 assessed as residual activity at 1 uM relative to control
T1 sequence (whole entry): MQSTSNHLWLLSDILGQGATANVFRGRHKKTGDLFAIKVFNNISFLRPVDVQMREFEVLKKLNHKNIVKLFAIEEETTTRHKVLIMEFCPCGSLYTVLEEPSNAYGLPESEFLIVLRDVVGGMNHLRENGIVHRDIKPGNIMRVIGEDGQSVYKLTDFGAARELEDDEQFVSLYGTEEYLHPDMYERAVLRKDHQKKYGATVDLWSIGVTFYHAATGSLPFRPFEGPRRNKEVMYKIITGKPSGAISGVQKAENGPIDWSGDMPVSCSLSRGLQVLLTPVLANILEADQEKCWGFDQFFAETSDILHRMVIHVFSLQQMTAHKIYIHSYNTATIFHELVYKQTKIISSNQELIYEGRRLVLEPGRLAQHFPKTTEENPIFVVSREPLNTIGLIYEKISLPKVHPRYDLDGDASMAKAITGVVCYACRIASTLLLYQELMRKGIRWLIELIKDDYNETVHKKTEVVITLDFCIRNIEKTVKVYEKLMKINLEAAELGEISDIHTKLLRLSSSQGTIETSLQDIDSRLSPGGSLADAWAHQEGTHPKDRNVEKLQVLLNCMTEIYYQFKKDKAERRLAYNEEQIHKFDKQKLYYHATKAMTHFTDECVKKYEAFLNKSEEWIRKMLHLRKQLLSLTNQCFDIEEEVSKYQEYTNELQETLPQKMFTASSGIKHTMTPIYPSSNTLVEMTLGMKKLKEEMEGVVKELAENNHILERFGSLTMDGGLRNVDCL

[6] = target: Serine/threonine-protein kinase PLK1 (Homo sapiens) (UniProt P53350); experiment: Inhibition of human PLK1 assessed as residual activity at 0.1 uM relative to control
Chain of Serine/threonine-protein kinase PLK1 (Homo sapiens) (P53350 whole entry): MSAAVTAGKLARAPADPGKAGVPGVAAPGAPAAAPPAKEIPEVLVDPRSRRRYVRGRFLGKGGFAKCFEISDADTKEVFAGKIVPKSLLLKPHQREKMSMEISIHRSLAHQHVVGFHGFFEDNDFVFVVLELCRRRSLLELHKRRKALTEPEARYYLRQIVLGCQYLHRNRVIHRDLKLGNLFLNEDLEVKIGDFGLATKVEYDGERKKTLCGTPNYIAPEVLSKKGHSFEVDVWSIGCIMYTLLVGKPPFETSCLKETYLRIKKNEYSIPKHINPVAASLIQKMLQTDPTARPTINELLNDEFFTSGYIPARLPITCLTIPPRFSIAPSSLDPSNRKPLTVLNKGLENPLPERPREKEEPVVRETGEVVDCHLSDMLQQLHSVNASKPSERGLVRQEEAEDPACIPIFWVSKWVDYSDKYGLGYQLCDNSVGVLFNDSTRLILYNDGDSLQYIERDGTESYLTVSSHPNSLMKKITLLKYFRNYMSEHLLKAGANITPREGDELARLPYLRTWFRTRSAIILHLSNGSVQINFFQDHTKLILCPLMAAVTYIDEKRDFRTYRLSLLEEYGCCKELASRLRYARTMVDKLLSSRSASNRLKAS

Homo sapiens [7] = species on record: Homo sapiens; experiment: Inhibition of human S6K assessed as residual activity at 1 uM relative to control
[8] = target: T2, Serine/threonine-protein kinase Sgk1 (Homo sapiens) (UniProt O00141); experiment: Inhibition of human SGK1 assessed as residual activity at 1 uM relative to control
T2 sequence (whole entry): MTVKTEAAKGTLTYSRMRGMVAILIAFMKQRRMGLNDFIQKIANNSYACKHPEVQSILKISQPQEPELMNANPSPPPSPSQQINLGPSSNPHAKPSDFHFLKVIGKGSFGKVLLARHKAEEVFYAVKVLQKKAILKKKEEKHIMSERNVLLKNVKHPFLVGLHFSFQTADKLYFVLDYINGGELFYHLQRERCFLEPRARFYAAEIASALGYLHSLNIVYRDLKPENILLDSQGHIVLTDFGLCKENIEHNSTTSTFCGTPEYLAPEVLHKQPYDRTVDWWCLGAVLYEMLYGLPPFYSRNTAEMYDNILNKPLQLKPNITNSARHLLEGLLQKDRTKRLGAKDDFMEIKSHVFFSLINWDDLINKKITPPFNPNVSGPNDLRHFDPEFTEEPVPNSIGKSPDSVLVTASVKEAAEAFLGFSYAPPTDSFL

Homo sapiens [9] = species on record: Homo sapiens; experiment: Inhibition of human PKA assessed as residual activity at 0.1 uM relative to control
[10] = target: Receptor-interacting serine/threonine-protein kinase 2 (Homo sapiens) (UniProt O43353); experiment: Inhibition of human RIPK2 assessed as residual activity at 1 uM relative to control
Chain of Receptor-interacting serine/threonine-protein kinase 2 (Homo sapiens) (O43353 whole entry, canonical isoform): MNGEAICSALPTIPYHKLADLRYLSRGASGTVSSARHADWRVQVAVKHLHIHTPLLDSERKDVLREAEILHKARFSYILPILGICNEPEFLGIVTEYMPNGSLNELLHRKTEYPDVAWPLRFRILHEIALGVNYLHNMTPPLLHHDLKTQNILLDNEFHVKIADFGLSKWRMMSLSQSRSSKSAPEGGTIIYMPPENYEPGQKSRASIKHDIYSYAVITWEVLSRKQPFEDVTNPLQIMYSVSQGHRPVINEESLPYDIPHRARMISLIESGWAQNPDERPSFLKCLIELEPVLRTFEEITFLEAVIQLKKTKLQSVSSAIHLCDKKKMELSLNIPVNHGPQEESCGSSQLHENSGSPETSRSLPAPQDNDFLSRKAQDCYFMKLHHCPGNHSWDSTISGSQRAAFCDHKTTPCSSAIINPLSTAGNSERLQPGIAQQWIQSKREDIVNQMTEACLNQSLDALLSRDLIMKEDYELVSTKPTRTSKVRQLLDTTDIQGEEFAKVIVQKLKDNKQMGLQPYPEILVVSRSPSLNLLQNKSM

[11] = target: Casein kinase I isoform delta (Homo sapiens) (UniProt P48730); experiment: Inhibition of human CK1-delta assessed as residual activity at 1 uM relative to control
Chain of Casein kinase I isoform delta (Homo sapiens) (P48730 whole entry, looked up, canonical isoform): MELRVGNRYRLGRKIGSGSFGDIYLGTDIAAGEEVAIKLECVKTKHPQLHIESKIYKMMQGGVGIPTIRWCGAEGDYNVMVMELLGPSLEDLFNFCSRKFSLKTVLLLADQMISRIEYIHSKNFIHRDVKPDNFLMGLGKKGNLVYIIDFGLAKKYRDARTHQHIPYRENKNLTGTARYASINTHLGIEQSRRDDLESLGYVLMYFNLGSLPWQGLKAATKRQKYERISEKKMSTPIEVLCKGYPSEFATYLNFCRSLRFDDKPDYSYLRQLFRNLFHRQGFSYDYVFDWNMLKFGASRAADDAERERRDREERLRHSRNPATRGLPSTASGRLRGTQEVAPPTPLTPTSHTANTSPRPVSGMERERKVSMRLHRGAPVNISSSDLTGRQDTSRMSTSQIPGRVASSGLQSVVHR

[12] = target: Tyrosine-protein kinase Lck (Homo sapiens) (UniProt P06239); experiment: Inhibition of human LCK assessed as residual activity at 1 uM relative to control
[13] = target: Insulin-like growth factor 1 receptor (Homo sapiens) (UniProt P08069); experiment: Inhibition of human IGF1R assessed as residual activity at 1 uM relative to control
[14] = target: T1, Serine/threonine-protein kinase TBK1 (Homo sapiens); experiment: Inhibition of human TBK1 assessed as residual activity at 0.1 uM relative to control
[15] = target: Receptor tyrosine-protein kinase erbB-4 (Homo sapiens) (UniProt Q15303); experiment: Inhibition of human ERBB4 assessed as residual activity at 1 uM relative to control
[16] = target: Casein kinase I isoform delta (Homo sapiens) (UniProt P48730); experiment: Inhibition of human CK1-delta assessed as residual activity at 0.1 uM relative to control
[17] = target: Casein kinase II subunit alpha (Homo sapiens) (UniProt P68400); experiment: Inhibition of human CK2alpha1 assessed as residual activity at 0.1 uM relative to control
Chain of Casein kinase II subunit alpha (Homo sapiens) (P68400 whole entry, looked up): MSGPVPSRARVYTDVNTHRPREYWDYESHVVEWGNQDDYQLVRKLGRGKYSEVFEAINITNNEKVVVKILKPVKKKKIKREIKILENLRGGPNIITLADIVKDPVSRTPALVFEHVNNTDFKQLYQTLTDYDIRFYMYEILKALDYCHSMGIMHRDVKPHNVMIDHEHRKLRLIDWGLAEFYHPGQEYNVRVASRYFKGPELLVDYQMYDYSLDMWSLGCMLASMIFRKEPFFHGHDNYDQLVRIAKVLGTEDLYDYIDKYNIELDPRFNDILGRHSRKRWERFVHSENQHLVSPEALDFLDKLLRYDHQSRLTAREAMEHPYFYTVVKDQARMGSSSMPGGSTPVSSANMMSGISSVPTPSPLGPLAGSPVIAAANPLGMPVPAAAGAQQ

[18] = target: Serine/threonine-protein kinase Nek6 (Homo sapiens) (UniProt Q9HC98); experiment: Inhibition of human NEK6 assessed as residual activity at 1 uM relative to control
[19] = target: Receptor-interacting serine/threonine-protein kinase 2 (Homo sapiens) (UniProt O43353); experiment: Inhibition of human RIPK2 assessed as residual activity at 0.1 uM relative to control
[20] = target: Ribosomal protein S6 kinase alpha-5 (Homo sapiens) (UniProt O75582); experiment: Inhibition of human RPS6KA5 assessed as residual activity at 0.1 uM relative to control
Chain of Ribosomal protein S6 kinase alpha-5 (Homo sapiens) (O75582 whole entry, looked up): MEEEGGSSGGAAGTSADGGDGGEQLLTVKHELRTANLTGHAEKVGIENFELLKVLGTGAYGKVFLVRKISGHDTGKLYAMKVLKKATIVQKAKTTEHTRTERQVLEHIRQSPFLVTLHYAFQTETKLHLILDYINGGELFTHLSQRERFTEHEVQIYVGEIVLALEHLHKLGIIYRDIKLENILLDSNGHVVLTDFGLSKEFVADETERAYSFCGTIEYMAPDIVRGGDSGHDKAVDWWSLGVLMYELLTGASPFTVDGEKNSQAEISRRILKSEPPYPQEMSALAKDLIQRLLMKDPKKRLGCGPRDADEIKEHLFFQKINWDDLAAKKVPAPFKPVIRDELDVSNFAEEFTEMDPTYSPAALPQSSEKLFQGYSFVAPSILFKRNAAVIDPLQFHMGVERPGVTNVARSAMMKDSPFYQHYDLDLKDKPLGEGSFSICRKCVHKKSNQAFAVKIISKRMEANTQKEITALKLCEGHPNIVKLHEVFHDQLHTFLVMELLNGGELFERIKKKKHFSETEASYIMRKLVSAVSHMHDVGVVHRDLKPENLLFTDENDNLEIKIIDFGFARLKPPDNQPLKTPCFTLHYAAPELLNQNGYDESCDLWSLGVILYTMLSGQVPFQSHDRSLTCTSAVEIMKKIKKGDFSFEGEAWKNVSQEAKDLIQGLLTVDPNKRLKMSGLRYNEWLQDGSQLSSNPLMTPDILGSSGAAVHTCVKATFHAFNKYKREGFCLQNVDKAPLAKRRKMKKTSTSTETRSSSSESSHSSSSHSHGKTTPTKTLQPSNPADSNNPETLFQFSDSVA

[21] = target: Homeodomain-interacting protein kinase 2 (Homo sapiens) (UniProt Q9H2X6); experiment: Inhibition of human HIPK2 assessed as residual activity at 0.1 uM relative to control
Chain of Homeodomain-interacting protein kinase 2 (Homo sapiens) (Q9H2X6 whole entry, looked up): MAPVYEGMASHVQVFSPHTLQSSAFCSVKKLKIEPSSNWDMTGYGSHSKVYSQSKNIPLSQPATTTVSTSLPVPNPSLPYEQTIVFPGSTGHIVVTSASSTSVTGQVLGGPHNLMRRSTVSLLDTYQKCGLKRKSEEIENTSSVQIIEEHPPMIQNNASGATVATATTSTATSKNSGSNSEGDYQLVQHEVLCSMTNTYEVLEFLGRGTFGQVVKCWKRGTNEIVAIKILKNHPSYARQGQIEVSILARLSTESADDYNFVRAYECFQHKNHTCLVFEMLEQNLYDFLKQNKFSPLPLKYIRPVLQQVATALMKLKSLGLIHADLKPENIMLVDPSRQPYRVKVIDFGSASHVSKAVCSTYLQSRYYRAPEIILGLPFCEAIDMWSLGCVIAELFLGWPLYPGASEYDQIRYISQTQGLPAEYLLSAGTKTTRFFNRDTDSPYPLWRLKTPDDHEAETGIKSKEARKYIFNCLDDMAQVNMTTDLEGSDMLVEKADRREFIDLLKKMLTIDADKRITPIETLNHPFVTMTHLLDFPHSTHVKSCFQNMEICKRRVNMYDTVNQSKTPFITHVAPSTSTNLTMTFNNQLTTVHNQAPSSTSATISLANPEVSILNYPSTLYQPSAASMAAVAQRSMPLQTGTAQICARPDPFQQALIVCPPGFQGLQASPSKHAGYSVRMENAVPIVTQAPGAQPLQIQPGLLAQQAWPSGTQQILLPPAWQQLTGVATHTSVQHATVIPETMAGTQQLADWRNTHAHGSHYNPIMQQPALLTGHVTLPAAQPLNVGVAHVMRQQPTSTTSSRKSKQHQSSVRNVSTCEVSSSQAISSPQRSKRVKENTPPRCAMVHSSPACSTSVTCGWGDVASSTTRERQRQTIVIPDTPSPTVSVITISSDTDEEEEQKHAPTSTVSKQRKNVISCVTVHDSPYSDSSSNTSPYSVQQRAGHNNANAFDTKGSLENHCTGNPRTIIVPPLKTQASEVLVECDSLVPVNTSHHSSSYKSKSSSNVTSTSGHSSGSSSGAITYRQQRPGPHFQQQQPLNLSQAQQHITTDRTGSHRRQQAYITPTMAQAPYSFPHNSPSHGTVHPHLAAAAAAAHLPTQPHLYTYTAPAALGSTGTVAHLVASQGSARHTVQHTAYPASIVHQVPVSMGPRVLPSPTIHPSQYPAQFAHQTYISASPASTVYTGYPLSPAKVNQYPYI

[22] = target: Serine/threonine-protein kinase Chk2 (Homo sapiens) (UniProt O96017); experiment: Inhibition of human CHK2 assessed as residual activity at 0.1 uM relative to control
[23] = target: Vascular endothelial growth factor receptor 1 (Homo sapiens) (UniProt P17948); experiment: Inhibition of human VEGFR1 assessed as residual activity at 1 uM relative to control
[24] = target: Glycogen synthase kinase-3 beta (Homo sapiens) (UniProt P49841); experiment: Inhibition of human GSK3-beta assessed as residual activity at 1 uM relative to control
[25] = target: Mitogen-activated protein kinase 8 (Homo sapiens) (UniProt P45983); experiment: Inhibition of human JNK1 assessed as residual activity at 1 uM relative to control
[26] = target: Dual specificity tyrosine-phosphorylation-regulated kinase 1A (Homo sapiens) (UniProt Q13627); experiment: Inhibition of human DYRK1A assessed as residual activity at 1 uM relative to control

Chain of RAC-alpha serine/threonine-protein kinase (Homo sapiens) (P31749 whole entry, the tested form may be a part): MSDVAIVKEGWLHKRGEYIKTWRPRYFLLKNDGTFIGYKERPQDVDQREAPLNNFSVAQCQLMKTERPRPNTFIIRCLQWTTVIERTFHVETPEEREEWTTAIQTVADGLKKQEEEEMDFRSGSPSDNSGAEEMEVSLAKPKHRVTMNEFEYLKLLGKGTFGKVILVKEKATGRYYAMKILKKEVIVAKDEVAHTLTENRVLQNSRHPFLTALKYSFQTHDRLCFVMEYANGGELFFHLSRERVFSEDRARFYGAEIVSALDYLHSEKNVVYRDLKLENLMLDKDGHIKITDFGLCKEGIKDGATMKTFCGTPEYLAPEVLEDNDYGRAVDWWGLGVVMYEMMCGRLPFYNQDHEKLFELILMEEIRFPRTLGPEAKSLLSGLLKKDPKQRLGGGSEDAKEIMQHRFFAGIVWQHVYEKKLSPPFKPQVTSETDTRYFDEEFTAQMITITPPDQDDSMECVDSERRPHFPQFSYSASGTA

With COc1ccc2c(c1)c(/C=C1\C(=O)Nc3ccc(S(=O)(=O)N(C)C)cc31)cn2C the Activity [1] was 101%, the Activity [2] was 104% and the Activity [3] was 84%. It also gave an Activity [4] of 100%, an Activity [5] of 79% and an Activity [6] of 83%. For the same compound, the Activity (Homo sapiens [7]) was 85%, the Activity [8] was 80% and the Activity (Homo sapiens [9]) was 91%. For the same compound, the Activity [10] was 95%, the Activity [11] was 86% and the Activity [12] was 64%. It also gave an Activity [13] of 79%, an Activity [14] of 100% and an Activity [15] of 85%. The Activity [16] was 89%, the Activity [17] was 98% and the Activity [18] was 100%. The Activity [19] was 104%, the Activity [20] was 105% and the Activity [21] was 109%. The Activity [22] was 100%, the Activity [23] was 93% and the Activity [24] was 97%. The Activity [25] was 100% and the Activity [26] was 94%.
